The numbers were not newly measured in US20240009433A1, “METHODS FOR CONTINUOUS ORAL DRUG DELIVERY” (SynAgile Corporation, priority 2020, published 2024), which cites them from elsewhere.

For series [1] the following is noted: in vivo.
The conditions of series [2]: in vivo. This is another data set of the same source.
The conditions of series [3]: in vivo. The source holds these as a separate data set.

As for `CCN(CC)C(=O)/C(C#N)=C/c1cc(O)c(O)c([N+](=O)[O-])c1` [Entacapone], the plasma half-life in series [1] is 0.4 to 0.7 h. The “crossing of the blood-brain barrier” value in series [2] was “does not cross the blood-brain barrier”.
Consider `Cc1ccc(C(=O)c2cc(O)c(O)c([N+](=O)[O-])c2)cc1` [Tolcapone], for which the plasma half-life in series [1] was 2 to 3 h. In series [2], the “crossing of the blood-brain barrier” value is on record as “crosses the barrier”. For the same molecule, in series [3], the hepatotoxicity result is given as “use is limited by its hepatotoxicity”.
